According to patent publication US7671061B2, “Methods and compositions for treating pain” (Hydra Biosciences, Inc., priority 2005, dated 2010):

What was measured:
[1] = biological target: T1, hTRPA1 (Homo sapiens, UniProt O75762, K186N); assay: TRPA1 patch clamp (perforated patch, AITC-activated current); type: cell-based
T1 construct: expressed in transfected cells; host or cells: HEK293/TREx (Invitrogen), induced with tetracycline
Excerpt: Patch clamp experiments permit the detection of currents through the TRPA1 channel in the cell line described above. To permit recording of current at a stable level and prevent the “rundown” observed by other labs, it is necessary to use the perforated patch technique, which prevents dialysis of the cytoplasm with the pipette solution. In normal whole-cell patch clamp recordings, a glass electrode is brought into contact with a single cell and a high-resistance (gigaohm) seal is established with the cell membrane. The membrane is then ruptured to achieve the whole-cell configuration, permitting control of the voltage of the cell membrane and measurement of currents flowing across the membrane using the amplifier attached to the electrode and resulting in the replacement of cytoplasm with the pipette solution. In contrast, in the perforated patch mode, an antibiotic, amphotericin, is present in the pipette solution and diffuses into contact with the cell after the seal is achieved, over the course of several minutes. The amphotericin forms ion-permeable pores in the membrane under the pipette, permitting passage of some ions but maintaining most native cytosolic components. A perfusion system permits control of the extracellular solution, including the addition of blockers and activators of the current. The current can be activated by addition of 5 μM AITC to the solution. […] In some cases, cells were grown in low density overnight on glass coverslips. Patch clamp recordings were made in the whole-cell mode with a holding potential of −40 mV. Every 5 seconds, a voltage ramp was applied from −120 to +100 mV, 400 ms in duration. Currents elicited were quantified at −80 mV and +80 mV. […] The external solution consisted of 150 mM NaCl, 4.5 mM KCl, 3 mM MgCl2, 10 mM HEPES, […], 1 mM EGTA, pH 7.4. Upon addition of AITC, TRPA1 current was induced only in TRPA1-expressing cells and not in parental HEK293 TREx cells. Removal of the AITC stimulus causes most of the current to go away. Potential blockers were tested for ability to block both inward and outward currents in the continued presence of AITC.

[2] = biological target: hERG (Homo sapiens, UniProt Q12809); assay: hERG patch clamp (Qpatch) selectivity; conditions: for selectivity ratio: human, selective for TRPA1 over hERG
[3] = biological target: T1, hTRPA1; assay: High throughput Ca2+ fluorescence (Fluo4) assay, AITC stimulation; type: cell-based
How it was run: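 Read-out is Fluo4 fluorescence, proportional to [Ca2+]i, over ~3 min after AITC challenge, following 2 min compound pre-exposure in HEK293/TREx cells induced with 1 μg/ml tetracycline. Dye: 1 μM, 60 min, room temperature.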

[4] = biological target: hNaV1.2 (Homo sapiens, UniProt Q99250); assay: hNaV1.2 patch clamp (Qpatch) selectivity; type: cell-based; conditions: Table 2; for IC50: read-out: hNaV1.2 IC50
[5] = Table 2, inward current, read-out: hTRPA1 Patch Inwd IC50
[6] = Table 2, read-out: hTRPA1 Fluor IC50
[7] = Table 1, read-out: hTRPA1 Patch IC50
[8] = Table 1, read-out: hTRPA1 Fluo4 IC50

Sequence of hNaV1.2 (Q99250 whole entry): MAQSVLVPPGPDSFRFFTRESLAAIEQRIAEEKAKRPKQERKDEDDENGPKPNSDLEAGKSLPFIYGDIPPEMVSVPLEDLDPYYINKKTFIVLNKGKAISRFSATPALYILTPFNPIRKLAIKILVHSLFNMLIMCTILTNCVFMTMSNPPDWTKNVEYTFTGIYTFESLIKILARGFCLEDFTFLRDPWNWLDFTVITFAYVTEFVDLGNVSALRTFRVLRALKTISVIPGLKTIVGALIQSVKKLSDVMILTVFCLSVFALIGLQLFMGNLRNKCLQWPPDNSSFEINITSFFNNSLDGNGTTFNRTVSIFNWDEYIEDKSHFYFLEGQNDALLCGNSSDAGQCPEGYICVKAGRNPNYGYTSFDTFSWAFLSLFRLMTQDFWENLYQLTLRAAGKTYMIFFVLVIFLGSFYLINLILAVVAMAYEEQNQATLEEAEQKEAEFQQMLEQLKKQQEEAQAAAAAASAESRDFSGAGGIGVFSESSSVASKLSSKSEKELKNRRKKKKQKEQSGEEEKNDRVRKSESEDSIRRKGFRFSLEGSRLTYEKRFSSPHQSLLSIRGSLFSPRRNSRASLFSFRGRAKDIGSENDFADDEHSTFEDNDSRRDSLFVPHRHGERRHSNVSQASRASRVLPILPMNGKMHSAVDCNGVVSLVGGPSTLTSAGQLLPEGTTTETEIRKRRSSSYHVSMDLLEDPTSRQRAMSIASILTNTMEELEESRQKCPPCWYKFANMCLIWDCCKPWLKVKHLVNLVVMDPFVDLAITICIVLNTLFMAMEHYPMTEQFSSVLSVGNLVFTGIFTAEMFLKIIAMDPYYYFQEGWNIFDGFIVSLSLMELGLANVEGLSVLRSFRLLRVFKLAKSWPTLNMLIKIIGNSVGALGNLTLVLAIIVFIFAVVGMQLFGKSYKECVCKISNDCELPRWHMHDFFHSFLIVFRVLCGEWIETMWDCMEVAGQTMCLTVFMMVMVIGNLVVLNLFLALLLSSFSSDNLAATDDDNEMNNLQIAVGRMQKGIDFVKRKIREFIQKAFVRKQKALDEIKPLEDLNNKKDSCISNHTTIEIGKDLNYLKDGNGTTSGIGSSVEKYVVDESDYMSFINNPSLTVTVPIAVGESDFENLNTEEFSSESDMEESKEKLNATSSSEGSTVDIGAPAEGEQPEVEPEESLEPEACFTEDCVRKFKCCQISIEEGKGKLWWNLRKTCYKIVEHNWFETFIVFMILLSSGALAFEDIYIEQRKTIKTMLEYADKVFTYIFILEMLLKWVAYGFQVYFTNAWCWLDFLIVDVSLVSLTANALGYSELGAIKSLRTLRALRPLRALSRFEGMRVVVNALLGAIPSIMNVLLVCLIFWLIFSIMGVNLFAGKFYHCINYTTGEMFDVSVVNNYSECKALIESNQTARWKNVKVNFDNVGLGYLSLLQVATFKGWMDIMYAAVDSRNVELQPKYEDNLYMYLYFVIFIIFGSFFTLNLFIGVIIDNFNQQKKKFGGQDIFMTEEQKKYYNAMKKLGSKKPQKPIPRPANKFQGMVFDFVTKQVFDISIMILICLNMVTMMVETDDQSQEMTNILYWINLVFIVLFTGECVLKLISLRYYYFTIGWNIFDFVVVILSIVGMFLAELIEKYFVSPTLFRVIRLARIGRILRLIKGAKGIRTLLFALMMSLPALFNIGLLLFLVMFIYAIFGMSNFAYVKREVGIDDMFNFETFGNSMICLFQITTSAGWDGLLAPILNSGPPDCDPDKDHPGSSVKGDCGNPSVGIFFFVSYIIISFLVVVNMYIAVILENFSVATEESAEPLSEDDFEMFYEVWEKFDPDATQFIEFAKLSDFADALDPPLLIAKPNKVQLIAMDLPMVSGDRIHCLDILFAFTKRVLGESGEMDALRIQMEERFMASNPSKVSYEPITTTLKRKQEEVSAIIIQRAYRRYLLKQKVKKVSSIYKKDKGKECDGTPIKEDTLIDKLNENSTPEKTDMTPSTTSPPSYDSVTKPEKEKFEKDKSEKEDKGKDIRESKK
T1 sequence (O75762 whole entry K186N): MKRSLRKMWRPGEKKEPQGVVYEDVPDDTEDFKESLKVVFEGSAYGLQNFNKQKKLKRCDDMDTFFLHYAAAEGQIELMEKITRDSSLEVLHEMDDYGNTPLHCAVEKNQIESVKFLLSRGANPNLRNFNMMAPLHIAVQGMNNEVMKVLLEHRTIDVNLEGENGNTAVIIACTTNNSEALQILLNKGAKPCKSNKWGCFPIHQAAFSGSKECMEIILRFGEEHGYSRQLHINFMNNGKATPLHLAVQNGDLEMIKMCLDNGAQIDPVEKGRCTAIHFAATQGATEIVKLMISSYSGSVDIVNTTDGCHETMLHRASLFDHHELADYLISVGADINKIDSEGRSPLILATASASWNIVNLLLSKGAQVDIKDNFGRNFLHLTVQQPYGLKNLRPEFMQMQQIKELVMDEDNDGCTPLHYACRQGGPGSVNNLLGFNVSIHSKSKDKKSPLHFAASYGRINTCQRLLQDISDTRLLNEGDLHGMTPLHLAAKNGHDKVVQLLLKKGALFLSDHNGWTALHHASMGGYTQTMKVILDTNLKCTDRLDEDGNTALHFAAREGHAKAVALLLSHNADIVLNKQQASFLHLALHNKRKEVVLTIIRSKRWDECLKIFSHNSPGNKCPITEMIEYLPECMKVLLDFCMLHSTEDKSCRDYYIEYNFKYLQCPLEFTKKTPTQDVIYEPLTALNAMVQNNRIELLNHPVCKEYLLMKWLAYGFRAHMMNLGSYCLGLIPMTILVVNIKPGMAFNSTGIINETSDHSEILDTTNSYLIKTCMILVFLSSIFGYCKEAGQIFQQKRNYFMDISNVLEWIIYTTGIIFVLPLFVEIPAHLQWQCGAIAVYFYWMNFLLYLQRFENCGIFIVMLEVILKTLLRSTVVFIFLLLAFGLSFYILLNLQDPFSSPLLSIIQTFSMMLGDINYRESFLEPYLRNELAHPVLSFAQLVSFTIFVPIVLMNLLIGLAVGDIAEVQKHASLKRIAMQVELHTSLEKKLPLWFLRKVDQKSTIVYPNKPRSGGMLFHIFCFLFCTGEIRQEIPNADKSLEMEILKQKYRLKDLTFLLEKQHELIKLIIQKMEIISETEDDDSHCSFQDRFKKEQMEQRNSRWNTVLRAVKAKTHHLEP
Sequence of hERG (Q12809 whole entry): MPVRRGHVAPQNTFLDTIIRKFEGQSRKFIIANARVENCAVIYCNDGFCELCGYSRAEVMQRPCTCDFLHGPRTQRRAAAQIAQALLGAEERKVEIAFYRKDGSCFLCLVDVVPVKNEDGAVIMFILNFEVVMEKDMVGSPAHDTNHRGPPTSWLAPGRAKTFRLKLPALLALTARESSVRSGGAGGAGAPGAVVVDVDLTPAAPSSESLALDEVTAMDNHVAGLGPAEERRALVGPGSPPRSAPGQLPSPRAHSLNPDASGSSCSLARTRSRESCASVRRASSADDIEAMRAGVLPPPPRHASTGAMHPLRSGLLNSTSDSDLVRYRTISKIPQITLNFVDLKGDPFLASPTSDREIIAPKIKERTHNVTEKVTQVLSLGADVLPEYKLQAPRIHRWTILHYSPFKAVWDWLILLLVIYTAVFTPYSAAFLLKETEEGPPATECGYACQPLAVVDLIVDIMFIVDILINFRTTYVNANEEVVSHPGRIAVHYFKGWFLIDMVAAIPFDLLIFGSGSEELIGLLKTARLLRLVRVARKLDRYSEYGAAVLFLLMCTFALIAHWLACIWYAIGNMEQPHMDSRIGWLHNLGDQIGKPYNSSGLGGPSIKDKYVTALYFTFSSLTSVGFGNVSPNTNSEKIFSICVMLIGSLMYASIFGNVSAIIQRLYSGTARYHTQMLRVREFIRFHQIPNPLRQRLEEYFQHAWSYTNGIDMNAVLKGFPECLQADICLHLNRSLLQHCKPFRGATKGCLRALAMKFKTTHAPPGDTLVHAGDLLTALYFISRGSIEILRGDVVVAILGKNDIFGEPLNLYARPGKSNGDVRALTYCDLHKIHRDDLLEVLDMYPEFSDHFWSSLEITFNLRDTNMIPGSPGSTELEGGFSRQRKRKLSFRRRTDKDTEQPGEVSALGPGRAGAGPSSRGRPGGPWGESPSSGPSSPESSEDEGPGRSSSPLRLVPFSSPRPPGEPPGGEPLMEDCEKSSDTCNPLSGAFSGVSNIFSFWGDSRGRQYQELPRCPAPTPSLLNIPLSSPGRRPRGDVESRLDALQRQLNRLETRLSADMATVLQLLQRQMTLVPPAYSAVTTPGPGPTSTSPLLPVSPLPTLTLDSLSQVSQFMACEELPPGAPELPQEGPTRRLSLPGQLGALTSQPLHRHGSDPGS

Row | Structure (SMILES) | IC50 [1, 5] [nM] | IC50 [3, 6] [µM] | IC50 [1, 7] [nM] | IC50 [3, 8] [µM] | also measured
1 | Cn1c(=O)c2c(ncn2CC(=O)Nc2ccc(Br)cc2)n(C)c1=O [Compound 219] | ≤ 5000 | ≤ 5 |  |  | selective for TRPA1 over hERG ([2]; Table 2): ≥ 15 fold; IC50 ([2]; hERG IC50 (nM), Table 2): ≥ 20000 nM; selective for TRPA1 over NaV1.2 [4]: ≥ 25 fold; IC50 [4]: ≥ 30 µM
2 | Cn1c(=O)c2c(ncn2CC(=O)Nc2cccc(C(F)(F)F)c2)n(C)c1=O [Compound 226] | ≤ 10000 | ≤ 5 |  |  | IC50 ([2]; hERG IC50 (nM), Table 2): > 10000 nM; selectivity ratio ([2]; Table 2): ≥ 2; selective for TRPA1 over NaV1.2 [4]: ≥ 5 fold; IC50 [4]: ≥ 30 µM
3 | Cn1c(=O)c2c(ncn2CC(=O)Nc2ccc(Br)cc2)n(C)c1=O [Compound 202] | ≤ 5000 | ≤ 5 |  |  | selective for TRPA1 over hERG ([2]; Table 2): ≥ 5 fold; IC50 ([2]; hERG IC50 (nM), Table 2): > 10000 nM
4 | Cn1c(=O)c2c(ncn2CC(=O)Nc2ccc(Cl)c(Cl)c2)n(C)c1=O [Compound 217] | ≤ 1000 | ≤ 10 |  |  | IC50 ([2]; hERG IC50 (nM), Table 2): ≥ 20000 nM; selectivity ratio ([2]; Table 2): ≥ 45; selective for TRPA1 over NaV1.2 [4]: ≥ 50 fold; IC50 [4]: ≥ 30 µM
5 | Cn1c(=O)c2c(ncn2CC(=O)Nc2ccncc2)n(C)c1=O [Compound 211] | > 10000 | > 10 |  |  | 
6 | Cn1c(=O)c2c(ncn2CC(=O)NCCSCc2ccccc2)n(C)c1=O [Compound 329] | ≤ 10000 | ≤ 10 |  |  | 
7 | COC(=O)C1=C(C)N(C)C(=O)NC1c1ccc(F)c(F)c1 (stereo not drawn) |  |  | ≤ 1000 | ≤ 5 | 
8 | COC(=O)C1=C(C)NC(=S)NC1c1cc(C)ccc1C (stereo not drawn) |  |  | ≤ 5000 | ≤ 5 | 
9 | Cn1c(=O)c2c(ncn2CC(=O)NCc2cccnc2)n(C)c1=O [Compound 206] | ≤ 10000 | > 10 |  |  | 
10 | Cc1ccc2nc(NC(=O)Cn3cnc4c3c(=O)n(C)c(=O)n4C)sc2c1 [Compound 233] | ≤ 5000 | ≤ 5 |  |  | 
11 | Cc1ccc(NC(=O)C(C)n2cnc3c2c(=O)n(C)c(=O)n3C)cc1 (stereo not drawn) [Compound 315] | ≤ 1000 | > 10 |  |  | 
12 | Cn1c(=O)c2c(ncn2CC(=O)Nc2ccc(Cl)c(C(F)(F)F)c2)n(C)c1=O [Compound 267] | ≤ 1000 | ≤ 1 |  |  | 
13 | CCCC1=C(C(=O)OCC)C(c2ccccc2Cl)NC(=O)N1 (stereo not drawn) |  |  | > 10000 | ≤ 5 | 
14 | COC(=O)C1=C(C)NC(=S)NC1c1cccc(Cl)c1Cl (stereo not drawn) |  |  | ≤ 1000 | ≤ 5 | 
15 | Cn1c(=O)c2c(ncn2CC(=O)NCC(C)(c2ccccc2)c2ccccc2)n(C)c1=O [Compound 348] | > 10000 | ≤ 5 |  |  | 
16 | COC(=O)C1=C(c2ccccc2)NC(=S)NC1c1ccc(F)cc1 (stereo not drawn) |  |  | > 10000 | > 10 | 
17 | CCOC(=O)C1=C(c2ccccc2)NC(=S)NC1c1ccc(Cl)c(Cl)c1 (stereo not drawn) |  |  | > 10000 | > 10 | 
18 | Cn1c(=O)c2c(ncn2CC(=O)Nc2ccc(-c3ccccc3)cc2)n(C)c1=O [Compound 294] | ≤ 1000 | ≤ 5 |  |  | 
19 | Cn1c(=O)c2c(ncn2CC(=O)Nc2ccc(N3CCCCC3)cc2)n(C)c1=O [Compound 252] | ≤ 10000 | ≤ 5 |  |  | 
20 | Cn1c(=O)c2c(ncn2CC(=O)Nc2ccc(Br)cc2Cl)n(C)c1=O [Compound 333] | ≤ 1000 | ≤ 5 |  |  | 
21 | COc1ccc2nc(NC(=O)Cn3cnc4c3c(=O)n(C)c(=O)n4C)sc2c1 [Compound 234] | ≤ 10000 | ≤ 5 |  |  | 
22 | Cc1ccc(Oc2ccc(NC(=O)Cn3cnc4c3c(=O)n(C)c(=O)n4C)cc2)cc1 [Compound 266] | ≤ 500 | ≤ 5 |  |  | 
23 | CCOC(=O)C1=C(c2ccccc2)NC(=S)NC1c1ccccc1Cl (stereo not drawn) |  |  | ≤ 5000 | > 10 | IC50 ([2]; hERG Qpatch IC50 (nM), Table 1): ≥ 20000 nM; selectivity ratio ([2]; Table 1): ≥ 10
24 | COC(=O)C1=C(C)NC(=S)NC1c1ccccc1 (stereo not drawn) |  |  | > 10000 | ≤ 5 | 
25 | Cn1c(=O)c2c(ncn2CC(=O)Nc2c(Cl)cccc2Cl)n(C)c1=O [Compound 305] | ≤ 10000 | > 10 |  |  | 
26 | Cn1c(=O)c2c(ncn2CC(=O)Nc2ccc(SC(F)F)cc2)n(C)c1=O [Compound 257] | ≤ 1000 | ≤ 1 |  |  | 
27 | Cn1c(=O)c2c(ncn2CC(=O)Nc2ccc([N+](=O)[O-])cc2)n(C)c1=O [Compound 210] | ≤ 10000 | ≥ 20 |  |  | 
28 | CC(C(=O)Nc1ccc(Br)cc1)n1cnc2c1c(=O)n(C)c(=O)n2C (stereo not drawn) [Compound 296] | ≤ 10000 | ≤ 5 |  |  | 

Row | Structure (SMILES) | IC50 [1, 5] [nM] | IC50 [3, 6] [µM] | IC50 [1, 7] [nM] | IC50 [3, 8] [µM] | also measured
29 | Cn1c(=O)c2c(ncn2CC(=O)Nc2cccc(I)c2)n(C)c1=O [Compound 295] | ≤ 1000 | ≤ 5 |  |  | 
30 | CN(C)c1ccc(NC(=O)Cn2cnc3c2c(=O)n(C)c(=O)n3C)cc1 [Compound 201] | > 10000 | ≥ 20 |  |  | 
31 | CCOC(=O)C1=C(c2ccccc2)NC(=S)NC1c1cccc(OC)c1 (stereo not drawn) |  |  | ≤ 5000 | ≤ 5 | 
32 | CCOC(=O)C1=C(C)NC(=S)NC1c1cccc(OC)c1 (stereo not drawn) |  |  |  | ≤ 5 | IC50 ([1]; hTRPA1 Patch IC50 (nM), Table 1): ≤ 10000 nM
33 | Cn1c(=O)c2c(ncn2CC(=O)Nc2ccc3c(c2)OC2(CCCC2)O3)n(C)c1=O [Compound 344] | ≤ 5000 | ≤ 5 |  |  | 
34 | Cn1c(=O)c2c(ncn2CC(=O)Nc2ccc(Nc3ccccc3)cc2)n(C)c1=O [Compound 250] | ≤ 1000 | ≤ 5 |  |  | 
35 | CCOC(=O)C1=C(c2ccccc2)NC(=S)NC1c1ccc(OC)cc1 (stereo not drawn) |  |  | > 10000 | > 10 | 
36 | C=CCOc1cccc(C2NC(=S)NC(C)=C2C(=O)OCC)c1 (stereo not drawn) |  |  | ≤ 1000 | ≤ 5 | 
37 | COc1cc([N+](=O)[O-])ccc1NC(=O)Cn1cnc2c1c(=O)n(C)c(=O)n2C [Compound 229] | ≤ 1000 | ≤ 5 |  |  | 
38 | CCOc1ccc(Oc2ccc(NC(=O)Cn3cnc4c3c(=O)n(C)c(=O)n4C)cc2)cc1 [Compound 284] | ≤ 500 | ≤ 5 |  |  | IC50 ([2]; hERG IC50 (nM), Table 2): ≤ 5000 nM; selectivity ratio ([2]; Table 2): ≥ 10
39 | CC1=C(C(=O)OC(C)C)C(c2ccc(C)c(Br)c2)NC(=O)N1 (stereo not drawn) |  |  | ≤ 500 | ≤ 5 | 
40 | COC(=O)C1=C(C)NC(=S)NC1c1ccc(OC)c(Br)c1 (stereo not drawn) |  |  | ≤ 1000 | ≤ 5 | 
41 | CCCc1ccc(-c2csc(NC(=O)Cn3cnc4c3c(=O)n(C)c(=O)n4C)n2)cc1 [Compound 274] | ≤ 1000 | ≤ 5 |  |  | 
42 | COC(=O)C1=C(C)NC(=S)NC1c1c(Cl)cccc1Cl (stereo not drawn) |  |  | ≤ 1000 | ≤ 5 | 
43 | Cn1c(=O)c2c(ncn2CC(=O)Nc2ccc(Br)cc2F)n(C)c1=O [Compound 371] | ≤ 5000 | ≤ 5 |  |  | 
44 | Cn1c(=O)c2c(ncn2CC(=O)Nc2ccc(C#N)cc2)n(C)c1=O [Compound 214] | ≤ 10000 | ≤ 10 |  |  | 
45 | CCOc1ccc(C2NC(=S)NC(C)=C2C(=O)OC)cc1 (stereo not drawn) |  |  | ≤ 10000 | ≤ 5 | 
46 | Cc1cc(Br)ccc1NC(=O)Cn1cnc2c1c(=O)n(C)c(=O)n2C [Compound 204] | > 10000 | ≤ 10 |  |  | 
47 | Cn1c(=O)c2c(ncn2CC(=O)Nc2ccc(C(N)=O)cc2)n(C)c1=O [Compound 212] | > 10000 | > 10 |  |  | 
48 | CCOC(=O)C1=C(c2ccccc2)NC(=S)NC1c1ccc(OC(C)C)cc1 (stereo not drawn) |  |  | > 10000 | ≥ 20 | 
49 | CCOC(=O)C1=C(C)NC(=S)NC1c1cccc(OCC)c1 (stereo not drawn) |  |  | ≤ 1000 | ≤ 5 | 
50 | Cc1ccc(F)cc1NC(=O)Cn1cnc2c1c(=O)n(C)c(=O)n2C [Compound 277] | ≤ 10000 | > 10 |  |  | 
51 | COc1ccc(CCNC(=O)Cn2cnc3c2c(=O)n(C)c(=O)n3C)cc1 [Compound 261, 2-(1,3-Dimethyl-2,6-dioxo-1,2,3,6-tetrahydropurin-7-yl)-N-[2-(4-methoxy-phenyl)-ethyl]-acetamide] | ≤ 5000 | ≤ 5 |  |  | 
52 | CCc1ccc(-c2csc(NC(=O)Cn3cnc4c3c(=O)n(C)c(=O)n4C)n2)cc1 [Compound 271] | ≤ 500 | ≤ 5 |  |  | IC50 ([2]; hERG IC50 (nM), Table 2): ≥ 30000 nM; selectivity ratio ([2]; Table 2): ≥ 150
53 | CCOC(=O)C1=C(c2ccccc2)NC(=S)NC1c1ccccc1Br (stereo not drawn) |  |  | ≤ 5000 | > 10 | IC50 ([2]; hERG Qpatch IC50 (nM), Table 1): > 10000 nM; selectivity ratio ([2]; Table 1): ≥ 5
54 | Cn1c(=O)c2c(ncn2CC(=O)NC(c2ccccc2)c2ccccc2)n(C)c1=O [Compound 203] | > 10000 | > 10 |  |  | 
55 | CCOc1ccc(NC(=O)Cn2cnc3c2c(=O)n(C)c(=O)n3C)cc1 [Compound 208] | > 10000 | ≤ 10 |  |  | 
